Test results published in ChEMBL document CHEMBL4052588, “Design of a Biased Potent Small Molecule Inhibitor of the Bromodomain and PHD Finger-Containing (BRPF) Proteins Suitable for Cellular and in Vivo Studies” (J Med Chem, 2017).

Experiments:
[1] = biological target: T1, Bromodomain-containing protein 1 (Homo sapiens) (UniProt O95696)
T1 sequence (whole entry): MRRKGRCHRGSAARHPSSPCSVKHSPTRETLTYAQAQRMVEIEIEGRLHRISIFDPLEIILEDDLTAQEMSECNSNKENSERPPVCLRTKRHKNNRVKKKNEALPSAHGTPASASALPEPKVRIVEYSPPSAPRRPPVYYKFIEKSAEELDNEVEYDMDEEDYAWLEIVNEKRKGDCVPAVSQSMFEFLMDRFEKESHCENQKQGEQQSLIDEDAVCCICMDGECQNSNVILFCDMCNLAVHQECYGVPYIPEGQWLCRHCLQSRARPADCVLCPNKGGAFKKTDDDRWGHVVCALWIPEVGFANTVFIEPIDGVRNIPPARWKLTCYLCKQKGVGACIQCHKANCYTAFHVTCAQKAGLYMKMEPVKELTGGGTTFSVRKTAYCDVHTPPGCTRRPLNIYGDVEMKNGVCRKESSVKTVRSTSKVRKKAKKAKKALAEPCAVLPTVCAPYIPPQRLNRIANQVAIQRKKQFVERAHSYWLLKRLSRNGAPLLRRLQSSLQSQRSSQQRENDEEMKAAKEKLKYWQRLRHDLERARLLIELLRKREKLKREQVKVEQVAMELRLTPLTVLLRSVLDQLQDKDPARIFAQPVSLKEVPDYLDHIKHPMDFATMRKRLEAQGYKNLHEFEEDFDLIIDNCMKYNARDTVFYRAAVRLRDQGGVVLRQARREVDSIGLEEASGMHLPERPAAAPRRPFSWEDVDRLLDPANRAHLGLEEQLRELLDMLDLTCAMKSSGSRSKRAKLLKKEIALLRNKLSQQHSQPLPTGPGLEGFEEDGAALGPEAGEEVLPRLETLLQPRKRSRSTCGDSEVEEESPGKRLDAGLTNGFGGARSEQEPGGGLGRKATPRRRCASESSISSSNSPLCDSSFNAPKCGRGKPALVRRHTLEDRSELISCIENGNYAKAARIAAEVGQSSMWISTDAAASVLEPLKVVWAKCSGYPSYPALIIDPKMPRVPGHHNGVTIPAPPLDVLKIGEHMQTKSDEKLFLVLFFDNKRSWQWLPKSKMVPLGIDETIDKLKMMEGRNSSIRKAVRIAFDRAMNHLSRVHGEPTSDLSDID

[2] = biological target: Bromodomain-containing protein 7 (Homo sapiens, UniProt Q9NPI1); experiment: Inhibition of human BRD7 expressed in Escherichia coli BL21 after 1 hr by BROMOscan assay
[3] = biological target: T2, ATPase family AAA domain-containing protein 2 (Homo sapiens, UniProt Q6PL18); experiment: Inhibition of human ATAD2A expressed in Escherichia coli BL21 after 1 hr by BROMOscan assay
T2 sequence (Q6PL18 whole entry): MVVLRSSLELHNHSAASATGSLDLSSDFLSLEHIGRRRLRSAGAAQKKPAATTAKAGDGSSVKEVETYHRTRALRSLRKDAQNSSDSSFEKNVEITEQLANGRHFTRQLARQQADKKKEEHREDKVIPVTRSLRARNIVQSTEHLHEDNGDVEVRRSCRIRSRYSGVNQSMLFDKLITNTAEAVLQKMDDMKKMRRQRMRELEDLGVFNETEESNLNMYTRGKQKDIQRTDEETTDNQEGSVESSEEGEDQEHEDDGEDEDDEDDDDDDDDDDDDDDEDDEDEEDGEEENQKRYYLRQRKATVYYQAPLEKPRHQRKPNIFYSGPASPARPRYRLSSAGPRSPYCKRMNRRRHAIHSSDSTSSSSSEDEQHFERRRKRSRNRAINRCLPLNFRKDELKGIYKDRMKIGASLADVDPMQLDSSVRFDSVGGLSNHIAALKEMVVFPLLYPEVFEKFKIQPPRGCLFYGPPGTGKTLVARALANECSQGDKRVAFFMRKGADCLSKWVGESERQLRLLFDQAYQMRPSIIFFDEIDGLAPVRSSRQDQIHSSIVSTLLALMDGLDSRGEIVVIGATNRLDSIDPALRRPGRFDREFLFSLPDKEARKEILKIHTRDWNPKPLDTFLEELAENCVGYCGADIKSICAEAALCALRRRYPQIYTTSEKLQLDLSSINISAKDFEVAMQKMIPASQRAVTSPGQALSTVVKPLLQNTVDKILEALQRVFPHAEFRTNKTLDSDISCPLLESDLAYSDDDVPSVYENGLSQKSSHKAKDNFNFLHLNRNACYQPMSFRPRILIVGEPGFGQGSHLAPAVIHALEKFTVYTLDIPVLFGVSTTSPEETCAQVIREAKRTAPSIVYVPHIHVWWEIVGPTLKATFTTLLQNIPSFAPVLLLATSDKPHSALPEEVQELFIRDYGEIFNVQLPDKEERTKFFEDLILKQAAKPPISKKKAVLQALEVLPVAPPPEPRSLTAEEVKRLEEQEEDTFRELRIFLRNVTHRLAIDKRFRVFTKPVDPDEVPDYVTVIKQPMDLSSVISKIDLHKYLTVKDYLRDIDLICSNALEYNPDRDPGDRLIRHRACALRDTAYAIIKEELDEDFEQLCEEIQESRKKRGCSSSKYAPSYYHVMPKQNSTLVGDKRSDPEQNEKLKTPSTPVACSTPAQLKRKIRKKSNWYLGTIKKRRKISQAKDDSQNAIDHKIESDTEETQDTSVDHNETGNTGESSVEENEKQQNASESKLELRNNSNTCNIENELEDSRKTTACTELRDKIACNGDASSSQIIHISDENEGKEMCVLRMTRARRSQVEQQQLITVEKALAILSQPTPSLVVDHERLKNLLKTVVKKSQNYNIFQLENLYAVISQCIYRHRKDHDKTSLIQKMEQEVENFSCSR

[4] = biological target: ATPase family AAA domain-containing protein 2B (Homo sapiens, UniProt Q9ULI0); experiment: Inhibition of human ATAD2B expressed in Escherichia coli BL21 after 1 hr by BROMOscan assay
Sequence of ATPase family AAA domain-containing protein 2B (Q9ULI0 whole entry, the tested form may be a part): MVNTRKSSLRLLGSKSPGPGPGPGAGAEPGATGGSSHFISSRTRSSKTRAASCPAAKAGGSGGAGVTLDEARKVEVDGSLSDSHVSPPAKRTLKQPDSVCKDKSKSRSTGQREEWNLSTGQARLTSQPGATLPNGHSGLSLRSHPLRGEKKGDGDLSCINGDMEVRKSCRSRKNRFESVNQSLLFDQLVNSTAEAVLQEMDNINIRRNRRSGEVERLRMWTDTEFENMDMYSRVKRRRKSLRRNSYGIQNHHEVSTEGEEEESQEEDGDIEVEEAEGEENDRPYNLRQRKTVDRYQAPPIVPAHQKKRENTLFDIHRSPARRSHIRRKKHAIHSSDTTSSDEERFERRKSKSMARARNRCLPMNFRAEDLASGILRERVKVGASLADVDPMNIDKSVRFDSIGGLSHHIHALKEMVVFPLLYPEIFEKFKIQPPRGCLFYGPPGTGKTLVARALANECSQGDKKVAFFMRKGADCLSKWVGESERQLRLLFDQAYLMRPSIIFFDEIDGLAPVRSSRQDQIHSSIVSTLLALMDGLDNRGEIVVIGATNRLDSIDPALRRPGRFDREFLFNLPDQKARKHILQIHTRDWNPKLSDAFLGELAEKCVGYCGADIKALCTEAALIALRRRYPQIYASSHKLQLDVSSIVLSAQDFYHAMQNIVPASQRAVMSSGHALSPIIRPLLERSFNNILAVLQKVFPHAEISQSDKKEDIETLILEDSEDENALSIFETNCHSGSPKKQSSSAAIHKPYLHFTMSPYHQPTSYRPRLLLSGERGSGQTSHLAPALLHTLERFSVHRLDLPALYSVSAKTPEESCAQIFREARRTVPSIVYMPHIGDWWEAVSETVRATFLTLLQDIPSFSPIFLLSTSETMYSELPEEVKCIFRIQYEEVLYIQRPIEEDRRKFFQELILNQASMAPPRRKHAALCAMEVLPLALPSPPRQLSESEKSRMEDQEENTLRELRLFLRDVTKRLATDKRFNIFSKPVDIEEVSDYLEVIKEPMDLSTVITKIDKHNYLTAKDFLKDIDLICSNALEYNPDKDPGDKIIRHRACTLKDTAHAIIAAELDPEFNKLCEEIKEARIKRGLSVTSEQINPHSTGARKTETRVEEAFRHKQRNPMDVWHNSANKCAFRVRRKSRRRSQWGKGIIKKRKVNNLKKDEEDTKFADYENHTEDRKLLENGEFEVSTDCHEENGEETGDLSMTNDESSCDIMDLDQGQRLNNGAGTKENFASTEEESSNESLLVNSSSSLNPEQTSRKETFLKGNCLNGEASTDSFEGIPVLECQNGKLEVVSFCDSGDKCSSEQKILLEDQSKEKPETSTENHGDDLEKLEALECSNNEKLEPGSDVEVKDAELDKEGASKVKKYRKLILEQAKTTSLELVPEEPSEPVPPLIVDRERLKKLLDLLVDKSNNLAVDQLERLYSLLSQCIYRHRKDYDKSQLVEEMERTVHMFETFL

Sequence of Bromodomain-containing protein 7 (Q9NPI1 whole entry, the tested form may be a part): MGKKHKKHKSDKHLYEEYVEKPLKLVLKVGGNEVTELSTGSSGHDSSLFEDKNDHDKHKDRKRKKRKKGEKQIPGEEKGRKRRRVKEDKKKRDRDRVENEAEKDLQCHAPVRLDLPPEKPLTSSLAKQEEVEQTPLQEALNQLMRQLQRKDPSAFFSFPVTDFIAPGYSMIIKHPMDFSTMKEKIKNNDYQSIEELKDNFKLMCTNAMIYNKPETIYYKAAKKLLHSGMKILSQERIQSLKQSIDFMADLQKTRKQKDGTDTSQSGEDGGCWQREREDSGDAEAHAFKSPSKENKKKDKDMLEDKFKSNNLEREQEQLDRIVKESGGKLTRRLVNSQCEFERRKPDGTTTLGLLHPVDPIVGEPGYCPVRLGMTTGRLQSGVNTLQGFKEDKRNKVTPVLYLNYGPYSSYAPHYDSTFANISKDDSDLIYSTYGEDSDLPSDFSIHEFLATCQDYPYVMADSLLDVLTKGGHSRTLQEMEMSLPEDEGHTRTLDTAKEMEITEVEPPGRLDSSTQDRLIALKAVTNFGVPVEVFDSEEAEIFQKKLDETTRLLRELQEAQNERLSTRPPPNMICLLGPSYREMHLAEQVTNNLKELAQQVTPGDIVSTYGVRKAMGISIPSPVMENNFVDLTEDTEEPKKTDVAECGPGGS

ΔTm [1] | IC50 [2] | IC50 [3] | IC50 [4] | Structure (SMILES)
3.4 °C |  |  |  | Cc1cc(C#N)ccc1S(=O)(=O)Nc1ccc2c(ccc(=O)n2C)c1
 | > 100 µM | > 100 µM | > 100 µM | CCc1cc2cc(NS(=O)(=O)c3ccc(C#N)cc3)ccc2n(CC)c1=O
5.1 °C | 0.082 µM | > 100 µM | > 100 µM | Cc1cc2cc(NS(=O)(=O)c3ccc(C#N)cc3)ccc2n(C)c1=O
